Assay [1] has as its system MIA-induced osteoarthritis pain. The experiment in a line: MIA-induced osteoarthritis model, grip force test. The assay is classed as in vivo, rat. Particulars: for % GFR [mean]: rat MIA, grip force, oral 3 mg/kg. From the text:
Osteoarthritis Pain: To assess the actions of a Compound of Formula (I) for the treatment or prevention of osteoarthritis pain, the rat monosodium iodo-acetate (MIA, i.e., sodium 2-iodoacetate) induced osteoarthritis model was used. Intra-articular injection of MIA causes joint degeneration characterized by osteolysis and swelling, with displacement of the patella, and reductions in bone mineral content and bone mineral density (Pomonis et al., “Development and pharmacological characterization of a rat model of osteoarthritis pain,” Pain 114: 339-346 (2005)). Under isoflurane anaesthesia, an intra-articular injection of 2 mg of MIA (Sigma-Aldrich) in 50 μl of saline was administered through the infrapatellar ligament of the knee joint of the right hind leg of the male, 6 week old Crl:CD(SD) rats. Control rats received an intra-articular injection of 50 μl of saline into the knee joint of the right hind leg. The left knee joint of all rats was untreated. Two weeks after MIA injection, rats were assessed for osteoarthritis pain related-behaviors immediately prior to and 1, 3, 5, 7, and 24 hours after oral drug-in-vehicle administration (for day 1) by determining their weight-bearing capabilities, via the weight bearing difference (WBD) test, and their gripping capabilities, via the grip force test, each as described below. Thus, in the assessment for osteoarthritis pain relief through gripping capability determinations, the 24 hour time point was the start of the next day when drug-in-vehicle was again orally administered (24 hours after the prior administration) for certain dosages. On days 2, 3, and 4, gripping capability response was determined 3 and 24 hours thereafter.
The grip force (GF) of the hind legs was assessed using a Animal Grip Strength System (San Diego Instruments, San Diego, Calif.). Rats were gently restrained and allowed to grasp the wire mesh strain gauge with their hind legs. The animals were then moved in a rostral-caudal direction until they let go of the gauge. The force (in g) at which the rat let go was recorded. Each animal was tested twice at approximately 3-10 minute intervals at each time point and the average of the two readings was used for the GF in data analysis.
Grip force, normalized to account for the weight of each animal, was expressed as “GF/B”, i.e., the ratio of GF to body weight, where GF is the grip force in grams and B is the body weight of the animal in kg. The “% GFR”, i.e., the percentage reversal of the (normalized) grip force impediment occurring post-MIA injection, was determined for each dosage at each time point using the following formula:
[formula] where (GF/B)Drug is the GF/B determined at each post-oral-administration time-point for each dose of each substance administered to MIA-injected animals, (GF/B)Vehicle is the GF/B determined at each post-oral-administration time-point for the vehicle control administered to MIA-injected animals, and (GF/B)Control Rat is the GF/B determined for control rats (saline-injected animals receiving orally-administered vehicle only). With the exception of the controls (i.e., celecoxib, vehicle) where the student's t-test was used, Dunnett's test was conducted for the % GFR. In either instance, values with p <0.05 were considered to be statistically significant.

Assay [2] shares this test system. Put plainly: MIA-induced osteoarthritis model, weight bearing difference (WBD) test. Particulars: rat MIA, oral 3 mg/kg. The assay is classed as in vivo. An excerpt: Osteoarthritis Pain: To assess the actions of a Compound of Formula (I) for the treatment or prevention of osteoarthritis pain, the rat monosodium iodo-acetate (MIA, i.e., sodium 2-iodoacetate) induced osteoarthritis model was used. Intra-articular injection of MIA causes joint degeneration characterized by osteolysis and swelling, with displacement of the patella, and reductions in bone mineral content and bone mineral density (Pomonis et al., “Development and pharmacological characterization of a rat model of osteoarthritis pain,” Pain 114: 339-346 (2005)). Under isoflurane anaesthesia, an intra-articular injection of 2 mg of MIA (Sigma-Aldrich) in 50 μl of saline was administered through the infrapatellar ligament of the knee joint of the right hind leg of the male, 6 week old Crl:CD(SD) rats. Control rats received an intra-articular injection of 50 μl of saline into the knee joint of the right hind leg. The left knee joint of all rats was untreated. […] Thus, in the assessment for osteoarthritis pain relief through gripping capability determinations, the 24 hour time point was the start of the next day when drug-in-vehicle was again orally administered (24 hours after the prior administration) for certain dosages. […] Weight Bearing Difference Test as an Assessment of Osteoarthritis Related Pain: The weight bearing difference test provides an accepted assessment of the efficacy of clinically useful analgesic drugs with respect of osteoarthritis related pain (see Pomonis et al. (2005)). WBD was assessed using a Linton Incapacitance Tester (Linton Instrumentation, Norfolk, UK). Rats were placed on the apparatus so that they were standing on their hind legs, and allowed to acclimate to the apparatus. When stationary, the weight born on each leg was measured over a 3s period. Three readings were taken for each rat at each time point; the average of the three readings was used for data analysis. WBD was expressed as “% WR”, i.e., the percentage of weight born on the MIA-injected right hind leg, using the following formula: [formula] where WR is the weight on the right hind leg and WL is the weight on the left (untreated) hind leg. […] The “% WRR”, i.e., the percentage reversal of the % WR impediment occurring post-MIA injection, was determined for each dosage at each time point using the following formula: [formula] where (% WR)Post-Drug is the % WR determined at each post-oral-administration time-point for each dose of each administered substance, (% WR)Pre-Drug is the % WR determined pre-oral-administration of each administered substance, and (% WR)Control Rat is the % WR determined for control rats (receiving the saline injection into the right hind leg knee joint). With the exception of the controls (i.e., celecoxib, vehicle) where the student's t-test was used, Dunnett's test was conducted for the % WRR.

Assay [3] concerns neuropathic mechanical hyperalgesia after partial sciatic nerve ligation. The experiment in a line: Seltzer model (partial sciatic nerve ligation) of neuropathic pain, paw withdrawal threshold. Format: in vivo, rat. Particulars: for % Reversal [mean ± SEM]: rat. The method, then: In the Seltzer model, the partial sciatic nerve ligation model of neuropathic pain was used to produce neuropathic hyperalgesia in rats (Seltzer et al., “A Novel Behavioral Model of Neuropathic Pain Disorders Produced in Rats by Partial Sciatic Nerve Injury,” Pain 43:205-218 (1990)). Partial ligation of the left sciatic nerve was performed under isoflurane/O2 inhalation anaesthesia. Following induction of anesthesia, the left thigh of the male, 6-7 week old Jcl:SD rat was shaved. The sciatic nerve was exposed at high thigh level through a small incision and was carefully cleared of surrounding connective tissues at a site near the trocanther just distal to the point at which the posterior biceps semitendinosus nerve branches off of the common sciatic nerve. A 7-0 silk suture was inserted into the nerve with a ⅜ curved, reversed-cutting mini-needle and tightly ligated so that the dorsal ⅓ to ½ of the nerve thickness was held within the ligature. The wound was closed with a single muscle suture (4-0 nylon (Vicryl)) and vetbond tissue glue. The wound area was then dusted with antibiotic powder. Sham treatment involved an identical surgical procedure except that the sciatic nerve was not manipulated or ligated.
Following surgery, animals were weighed and placed on a warm pad until they recovered from anesthesia. Animals were then returned to their home cages until behavioral testing began. The animal was assessed for response to noxious mechanical stimuli by determining PWT for the rear paw of the animal, as described below, prior to surgery (baseline), then immediately prior to and 1, 3, 5, 7, and 24 hours after oral drug-in-vehicle administration (for day 1). Thus, the 24 hour time point was the start of the next day when drug-in-vehicle was again orally administered (24 hours after the prior administration). On days 2 and 3, PWT response was determined 1, 3, and 24 hours thereafter. Percentage reversal of neuropathic hyperalgesia at each of the specified times after administration was defined as: […]
Additionally, 10 mg/kg of pregabalin (Kemprotec, Ltd., Middlesbrough, UK), an anticonvulsant accepted for relief of particular neuropathic pain, in vehicle and the vehicle alone (0.5% weight/volume methylcellulose (400cP, Wako Pure Chemical Industries, Ltd.)/aqueous solution) were orally administered as controls. […] Ten rats that underwent partial ligation of the left sciatic nerve were used for each treatment group. Dunnett's test was conducted for the % reversal; values with p<0.05 were considered to be statistically significant.
Additionally, as a control the rats underwent sham surgery in which an identical surgical procedure was followed with regard to the right thigh but the sciatic nerve was neither manipulated nor ligated.
Response to Mechanical Stimuli as an Assessment of Mechanical Hyperalgesia: The paw pressure assay was used to assess mechanical hyperalgesia. […] Biochem. and Behavior 31:451-455 (1988). The maximum weight that could be applied to the hind paw was set at 250 g and the end point was taken as complete withdrawal of the paw. PWT was determined once for each rat at each time point and either only the affected (ipsilateral) paw was tested, or both the ipsilateral and contralateral (non-injured) paw were tested.

Each structure is given as a SMILES string. Marks after values point to notes of the source that are not given here.

With `Cc1ccc(-c2cc(C(F)(F)F)nn2-c2ccc(S(N)(=O)=O)cc2)cc1` [Celecoxib, celecoxib, reference compound], the “maximum analgesic efficacy relative to the Example 10 product at 1 mg/kg” value in assay [1] (30.0% reversal (3 mg/kg, 3 h, day 1) as share of the 45.2% reversal of the product at 1 mg/kg) is given as “about 66.4%”. In assay [1] (30.0% reversal (3 mg/kg, 3 h, day 1) as share of the 53.6% reversal of the product at 3 mg/kg), the “maximum analgesic efficacy relative to the Example 10 product at 3 mg/kg” value is listed as approximately 56.0%. The “% GFR [mean]” value was 22.6^†† % in assay [1] (1 h (day 1)); 30.0^†† % in assay [1] (3 h (day 1)); 30.0% in assay [1] (3 h (day 1), listed as celecoxib); 20.9^†† % in assay [1] (5 h (day 1)); 3.6% in assay [1] (7 h (day 1)); −3.6% in assay [1] (24 h after day 1 dose (0 hrs day 2)). In addition, the “% WRR [mean]” value in assay [2] (1 h after administration) is 10.2^† %; in assay [2] (1 h after administration, listed as celecoxib) it was 10.2%; in assay [2] (3 h after administration), 27.8^†† %; in assay [2] (3 h after administration, listed as celecoxib), 27.8%; in assay [2] (5 h after administration), 14.1^†† %; in assay [2] (5 h after administration, listed as celecoxib) it was 14.1%. Further, the “% WRR [mean]” value in assay [2] (7 h after administration) was 6.0^† %; in assay [2] (7 h after administration, listed as celecoxib), 6.0%; in assay [2] (24 h after administration), 2.0%.

`CC(C)C[C@H](CN)CC(=O)O` [pregabalin, reference compound]: the “maximum analgesic efficacy relative to the Example 10 product at 10 mg/kg” value in assay [3] (24.73% reversal (10 mg/kg, 3 h, day 1) as share of the 34.17% reversal of the product at 10 mg/kg) is listed as “about 72%”. Also, the “% Reversal [mean ± SEM]” value was 16.74 ± 4.23 % in assay [3] (pregabalin control 10 mg/kg oral once daily, 1 hours (day 2) after administration); 17.16 ± 6.64 % in assay [3] (pregabalin control 10 mg/kg oral once daily, 1 hours (day 3) after administration); 23.21 ± 2.30 % in assay [3] (pregabalin control 10 mg/kg oral once daily, 3 hours (day 2) after administration); 26.56 ± 4.95 % in assay [3] (pregabalin control 10 mg/kg oral once daily, 3 hours (day 3) after administration); −2.84 ± 4.74% in assay [3] (pregabalin control 10 mg/kg oral once daily, 24 hours (0 hrs day 2) after administration); 1.70 ± 4.29% in assay [3] (pregabalin control 10 mg/kg oral once daily, 24 hours (0 hrs day 3) after administration). For the same compound, the “% Reversal [mean ± SEM]” value is given as −3.67 ± 2.66% in assay [3] (pregabalin control 10 mg/kg oral once daily, 24 hours (0 hrs day 4) after administration); 24.05 ± 6.46 % in assay [3] (pregabalin control 10 mg/kg oral, 1 hours (day 1) after administration); 24.73 ± 4.12 % in assay [3] (pregabalin control 10 mg/kg oral, 3 hours (day 1) after administration); 19.97 ± 4.79 % in assay [3] (pregabalin control 10 mg/kg oral, 5 hours (day 1) after administration); 11.89 ± 3.16 % in assay [3] (pregabalin control 10 mg/kg oral, 7 hours (day 1) after administration). In addition, the “% reversal of neuropathic hyperalgesia” value in assay [3] (rat Seltzer model, oral 10 mg/kg, 3 h after day 1 administration (maximum)) is on record as 24.73%.

The record behind these values is patent US9273043B2, “TRPV1 antagonists including dihydroxy substituent and uses thereof” (Purdue Pharma L.P., priority 2011, dated 2016).
